Experiment [1] deals with T1, PRMT5 (Homo sapiens, UniProt O14744).
T1 construct: purchased Viva (custom protein)
In words: PRMT5 biochemical IC50 assay with MTA as cofactor. The following applies: PRMT5, MTA as cofactor; read-out: MTA IC50.

The target in experiment [2] is T1, PRMT5. In words: PRMT5 biochemical IC50 assay with no cofactor. The note with it: PRMT5, no cofactor. The source says:
Table 1 indicates IC50 values (μM) against PRMT5 for exemplary compounds in the presence of SAM as cofactor, with no cofactor, and with MTA as cofactor, respectively (columns 4-6). […] Ki values can be calculated from the IC50 values as described in the Examples section. As detailed in the Examples section, for the assay performed in the presence of SAM, IC50=Ki×1.5 (Ki=IC50/1.5).

Experiment [3] addresses T1, PRMT5. Put plainly: PRMT5 biochemical IC50 assay with SAM as cofactor. The following applies: PRMT5, SAM as cofactor; read-out: SAM IC50.
Experiment [4] deals with HAP1 MTAP-deleted cell line. In words: Viability assay, MTAP-deleted cell line. It is filed as cell-based. The source says: Table 1 additionally indicates IC50 values in a viability assay for the MTAP-deleted cell line (column 10), indicating the effect of treatment with compound on cell survival.
In experiment [5] the test system is HAP1 MTAP-deleted cell line. In words: SDMA in-cell western assay, HAP1 MTAP-deleted. It is filed as cell-based. The following applies: for MTAP intact/deleted ratio: SDMA in-cell western; for pIC50: Homo sapiens. The source says: Table 1 also indicates IC50 values in an MTAP-isogenic cell line pair for exemplary compounds in an SDMA in-cell western assay (columns 7-8). HAP1 MTAP-intact is a cell line in which endogenous levels of MTAP are expressed, and HAP1 MTAP-deleted is an MTAP-null cell line.

[6] abbreviates: read-out: No Cofactor/ rel IC50.
[7] abbreviates: Homo sapiens, HAP1, read-out: HAP1 MTAP deleted viability.

SMILES strings stand for the structures. pIC50: −log10 of the molar value.

T1 sequence (O14744 whole entry): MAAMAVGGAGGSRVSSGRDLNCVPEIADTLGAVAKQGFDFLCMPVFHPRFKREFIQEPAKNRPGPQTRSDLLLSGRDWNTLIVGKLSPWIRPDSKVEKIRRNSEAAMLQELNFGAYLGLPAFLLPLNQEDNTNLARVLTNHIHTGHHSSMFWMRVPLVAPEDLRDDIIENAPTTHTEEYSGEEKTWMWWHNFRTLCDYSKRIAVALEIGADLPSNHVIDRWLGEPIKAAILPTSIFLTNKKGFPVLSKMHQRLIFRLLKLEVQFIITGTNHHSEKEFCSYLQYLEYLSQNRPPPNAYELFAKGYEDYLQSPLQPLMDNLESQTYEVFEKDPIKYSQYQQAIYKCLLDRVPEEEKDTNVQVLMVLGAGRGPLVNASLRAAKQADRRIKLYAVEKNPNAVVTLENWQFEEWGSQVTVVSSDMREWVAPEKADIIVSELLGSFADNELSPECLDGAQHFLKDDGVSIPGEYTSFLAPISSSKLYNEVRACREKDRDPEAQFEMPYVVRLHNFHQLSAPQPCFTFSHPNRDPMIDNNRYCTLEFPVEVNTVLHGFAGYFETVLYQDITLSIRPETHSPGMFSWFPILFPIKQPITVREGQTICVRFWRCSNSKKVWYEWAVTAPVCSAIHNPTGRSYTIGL
T1 sequence (Q9BQA1 whole entry partner): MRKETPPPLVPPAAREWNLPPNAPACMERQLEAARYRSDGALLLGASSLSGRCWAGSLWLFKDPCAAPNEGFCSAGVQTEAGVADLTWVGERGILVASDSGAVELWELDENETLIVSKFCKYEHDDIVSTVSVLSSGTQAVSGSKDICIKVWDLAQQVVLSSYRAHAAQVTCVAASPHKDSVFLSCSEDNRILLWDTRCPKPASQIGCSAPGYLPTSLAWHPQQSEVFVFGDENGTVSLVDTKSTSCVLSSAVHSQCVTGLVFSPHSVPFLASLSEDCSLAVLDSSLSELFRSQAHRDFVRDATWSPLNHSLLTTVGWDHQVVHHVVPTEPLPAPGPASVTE

For `NC(=O)c1cncc(NC(=O)C(=O)N2C[C@@H](CO)CC[C@H]2c2ccccc2)c1` (racemic) [Compound 285, 5-(2-(5-(hydroxymethyl)-2-phenylpiperidin-1-yl)-2-oxoacetamido)nicotinamide], the pIC50 is 6.30 to 7.30 in experiment [1], < 6.30 in experiment [2] (read-out: No Cofactor/rel IC50) and < 6.30 in experiment [3].

In the case of `NC(=O)c1cncc(NC(=O)C(=O)N2C[C@H](OC(F)F)CC[C@@H]2c2ccccc2)c1` (racemic) [Compound 400, 5-[[2-[(2R,5R)-5-(Difluoromethoxy)-2-phenyl-1-piperidyl]-2-oxo-acetyl]amino]pyridine-3-carboxamide], the pIC50 in experiment [1] is 6.30 to 7.30; in experiment [2] (read-out: No Cofactor/rel IC50), < 6.30; in experiment [3], < 6.30.

For the compound `NC(=O)c1cncc(NC(=O)C(=O)N2C[C@H](OC(F)(F)F)CC[C@H]2c2ccccc2)c1` (racemic) [Compound 411, 5-[[2-Oxo-2-[2-phenyl-5-(trifluoromethoxy)-1-piperidyl]acetyl]amino]pyridine-3-carboxamide], the pIC50 was 6.30 to 7.30 in experiment [1], < 6.30 in experiment [2] (read-out: No Cofactor/rel IC50) and < 6.30 in experiment [3].

Take `Cc1cc(NC(=O)C(=O)N2C[C@H](C)CC[C@H]2c2ccc3c(c2)CCC(=O)N3)cnc1C(F)(F)F` (racemic) [Compound 650, 2-[(2R,5S)-5-Methyl-2-(2-oxo-3,4-dihydro-1H-quinolin-6-yl)-1-piperidyl]-N-[5-methyl-6-(trifluoromethyl)-3-pyridyl]-2-oxo-acetamide]: the pIC50 in experiment [1], in experiment [2] (read-out: No Cofactor/rel IC50) and in experiment [3] was 6.30 to 7.30 in each case.

Consider `Cc1cc(NC(=O)C(=O)N2CCC(N(C)C)C[C@H]2c2ccccc2)cnc1N` (mixture of isomers) [Compound 975, N-(6-amino-5-methyl-3-pyridyl)-2-[(2S,4S)-4-(dimethylamino)-2-phenyl-1-piperidyl]-2-oxo-acetamide], for which the pIC50 in experiment [2] (read-out: No Cofactor/rel IC50) and in experiment [3] was < 6.30 throughout.

As to `CNc1ccc([C@@H]2CC(F)(F)[C@@H](C)CN2C(=O)C(=O)Nc2cnc(N)c(C)c2)cn1` (racemic) [Compound 1054], the pIC50 in experiment [1], in experiment [2] (read-out: No Cofactor/rel IC50) and in experiment [3] was 6.30 to 7.30 each time.

As to `CCc1cc(NC(=O)C(=O)N2C[C@@H](C)[C@@H](OC(C)C)C[C@@H]2c2ccc3scnc3c2)cnc1N` (racemic) [Compound 1235], in experiment [4] (viability assay, MTAP-deleted cell line, read-out: HAP1 MTAP deleted viability), the pIC50 is > 6.00. In addition, in experiment [5] (IC50 ratio HAP1 MTAP-intact vs HAP1 MTAP-deleted), the MTAP intact/deleted ratio entry was “A (an IC50 ratio greater than or equal to 10 fold)”.

Turning to `Cc1ccc([C@H]2CC[C@H](C)CN2C(=O)C(=O)Nc2cncc(C)c2)cc1` (single isomer, unassigned) [Compound 12], the pIC50 in experiment [1], in experiment [2] (setting [6]) and in experiment [3] was < 6.30 each time.

On to `CC[C@H]1CC[C@H](c2ccccc2)N(C(=O)C(=O)Nc2cncc(C)c2)C1` (single isomer, unassigned) [Compound 18], for which the pIC50 in experiment [1] and in experiment [3] was < 6.30 each time.

As to `Cc1cncc(NC(=O)C(=O)N2C[C@@H](C)CC[C@@H]2c2ccc(C)c(C)c2)c1` (single isomer, unassigned) [Compound 19], the pIC50 in experiment [1], in experiment [2] (setting [6]) and in experiment [3] was < 6.30 each time.

With `CC[C@H]1CC[C@@H](c2ccccc2)N(C(=O)C(=O)Nc2cncc(C)c2)C1` (single isomer, unassigned) [Compound 20], the pIC50 in experiment [1], in experiment [2] (setting [6]) and in experiment [3] was < 6.30 in each case.

As to `Cc1cc(NC(=O)C(=O)N2C[C@H](C)CC[C@H]2c2ccccc2)cnc1N` (single isomer, unassigned) [Compound 40], the pIC50 in experiment [4] (setting [7]) was < 5.00.

Take `Cc1cncc(NC(=O)C(=O)N2C(C)C(C)CC[C@H]2c2ccccc2)c1` (single isomer, unassigned) [Compound 41]: the pIC50 in experiment [4] (setting [7]) was < 5.00.

Consider `C[C@@H]1CC[C@@H](c2ccccc2)N(C(=O)C(=O)Nc2cncc(C(N)=O)c2)C1` (single isomer, unassigned) [Compound 71], for which the pIC50 in experiment [4] (setting [7]) was < 5.00; in experiment [5] (HAP1, read-out: HAP1 MTAP deleted IC50), < 6.00.

Take `Cc1cc(NC(=O)C(=O)N2CCCC[C@@H]2c2cccnc2)cnc1N` (single isomer, unassigned) [Compound 74]: the pIC50 was 6.30 to 7.30 in experiment [1], < 6.30 in experiment [2] (setting [6]) and < 6.30 in experiment [3].

For `Cc1cncc(NC(=O)C(=O)N2CC(C)CC[C@@H]2c2cccc(F)c2)c1` (single isomer, unassigned) [Compound 84], the pIC50 in experiment [1], in experiment [2] (setting [6]) and in experiment [3] was < 6.30 in each case.

Take `C[C@@H]1CC[C@H](c2cccnc2)N(C(=O)C(=O)Nc2cncc(C(N)=O)c2)C1` (single isomer, unassigned) [Compound 98]: the pIC50 in experiment [1], in experiment [2] (setting [6]) and in experiment [3] was < 6.30 throughout.

For `Cc1cc(NC(=O)C(=O)N2C[C@@H](C)CC[C@@H]2c2cccs2)cnc1N` (single isomer, unassigned) [Compound 122], the pIC50 in experiment [1], in experiment [2] (setting [6]) and in experiment [3] was < 6.30 in each case.

For the compound `C[C@@H]1CC[C@H](C2CCCCC2)N(C(=O)C(=O)Nc2cncc(C(N)=O)c2)C1` (single isomer, unassigned) [Compound 127], the pIC50 in experiment [1], in experiment [2] (setting [6]) and in experiment [3] was < 6.30 each time.

Regarding `C[C@@H]1CC[C@@H](C2CCCCC2)N(C(=O)C(=O)Nc2cncc(C(N)=O)c2)C1` (single isomer, unassigned) [Compound 130], the pIC50 in experiment [1], in experiment [2] (setting [6]) and in experiment [3] was < 6.30 each time.

For the compound `Cc1cc(NC(=O)C(=O)N2C[C@@H](C)CC[C@@H]2C2CCCCC2)cnc1N` (single isomer, unassigned) [Compound 152], the pIC50 in experiment [1], in experiment [2] (setting [6]) and in experiment [3] was < 6.30 in each case.

In the case of `C[C@H]1C[C@@H](C)[C@H](c2ccccc2)N(C(=O)C(=O)Nc2cncc(C(N)=O)c2)C1` (single isomer, unassigned) [Compound 275, 5-(2-(3,5-dimethyl-2-phenylpiperidin-1-yl)-2-oxoacetamido)nicotinamide], the pIC50 in experiment [1], in experiment [2] (read-out: No Cofactor/rel IC50) and in experiment [3] was < 6.30 in each case.

For the compound `C[C@@H]1C[C@@H](C)[C@@H](c2ccccc2)N(C(=O)C(=O)Nc2cncc(C(N)=O)c2)C1` (single isomer, unassigned) [Compound 286, 5-(2-(3,5-dimethyl-2-phenylpiperidin-1-yl)-2-oxoacetamido)nicotinamide], the pIC50 in experiment [1], in experiment [2] (read-out: No Cofactor/rel IC50) and in experiment [3] was < 6.30 in each case.

On to `Cc1cc(NC(=O)C(=O)N2C[C@H](C)[C@H](C)C[C@@H]2c2ccccc2)cnc1N` (single isomer, unassigned) [Compound 299], for which the pIC50 in experiment [1], in experiment [2] (read-out: No Cofactor/rel IC50) and in experiment [3] was < 6.30 in each case.

`Cc1cc(NC(=O)C(=O)N2C[C@H](C)[C@@H](C)C[C@@H]2c2ccccc2)cnc1N` (single isomer, unassigned) [Compound 305]: the pIC50 in experiment [1], in experiment [2] (read-out: No Cofactor/rel IC50) and in experiment [3] was < 6.30 each time.

As to `Cc1cc(NC(=O)C(=O)N2C[C@@H](C)CC[C@@H]2c2cccnc2)cnc1N` (single isomer, unassigned) [Compound 309], the pIC50 in experiment [1], in experiment [2] (read-out: No Cofactor/rel IC50) and in experiment [3] was < 6.30 each time.

With `Cc1cc([C@H]2CC[C@H](C)CN2C(=O)C(=O)Nc2cncc(C(N)=O)c2)ccc1O` (single isomer, unassigned) [Compound 330], the pIC50 in experiment [1], in experiment [2] (read-out: No Cofactor/rel IC50) and in experiment [3] was < 6.30 in each case.

Consider `COc1ncc(NC(=O)C(=O)N2C[C@H](C)CC[C@H]2C2CCCCC2)cc1C(N)=O` (single isomer, unassigned) [Compound 370], for which the pIC50 in experiment [1], in experiment [2] (read-out: No Cofactor/rel IC50) and in experiment [3] was < 6.30 throughout.

Consider `Cc1cc(NC(=O)C(=O)N2C[C@@H](C)CC[C@@H]2c2ccc(C(F)F)cc2)cnc1N` (single isomer, unassigned) [Compound 410], for which the pIC50 in experiment [4] (setting [7]) is < 5.00.

With `Cc1cc(NC(=O)C(=O)N2C[C@H](C)CC[C@H]2c2ccc3c(c2)CC(=O)N3)cnc1N` (single isomer, unassigned) [Compound 677], in experiment [4] (setting [7]), the pIC50 is < 5.00.

Turning to `COc1ncc(NC(=O)C(=O)N2C[C@@H](C)CC[C@@H]2c2ccc3sc(CCN(C)C)nc3c2)cc1C(N)=O` (single isomer, unassigned) [Compound 1378], the pIC50 is > 6.00 in experiment [4] (Homo sapiens, HAP1, viability, HAP1 MTAP-deleted cell line, read-out: HAP1 MTAP deleted viability); > 7.30 in experiment [2] (setting [6]); > 7.00 in experiment [5] (HAP1, SDMA in-cell western, HAP1 MTAP-deleted, read-out: HAP 1 MTAP deleted IC50). In addition, in experiment [5] (IC50 ratio HAP1 MTAP-intact / HAP1 MTAP-deleted), the “MTAP intact/deleted ratio” value is given as “A (an IC50 ratio greater than or equal to 10 fold)”.
